Patent US20200405687A1, “METHODS FOR THE TREATMENT OF INFECTION” (Corbus Pharmaceuticals, Inc., priority 2016, published 2020)

Tests used:
[1] = Phase 2 study in subjects having cystic fibrosis, acute pulmonary exacerbations and safety (Example 4); format: in vivo, human
Procedure: An international, multi-center, double-blinded, randomized, placebo-controlled Phase 2 study was performed in subjects having cystic fibrosis. The primary objective of the study was to test safety and tolerability of ajulemic acid in adults with cystic fibrosis who had forced expiratory volume in 1 second (FEV1) percent predicted at least 40% predicted, without regard to their CFTR mutation, infecting pathogen, or baseline treatment. Events of special interest included acute exacerbations requiring intravenous antibiotic treatment or treatment with new antibiotics.
Eighty-five subjects on stable standard-of-care medications were dosed with ajulemic acid at 21 cystic fibrosis centers in the U.S. and Europe and treated with ajulemic acid daily for a period of 84 days, with a follow-up period of 28 days. During the first part of the study (weeks 1-4) subjects were randomized to the following treatment groups: placebo (n=35), 1 mg/day ajulemic acid (n=26) or 5 mg/day ajulemic acid (n=24). During the second part of the study (weeks 5-13), subjects given ajulemic acid in the first part of the study were re-randomized to ajulemic acid 20 mg once per day (n=31) or ajulemic acid 20 mg twice a day (n=30) with 11 subjects from the placebo group also being randomized to the ajulemic acid arms. The last part of the study was a 28 day follow up period post treatment.

[2] = system: Pseudomonas aeruginosa; assay: Pseudomonas aeruginosa agarose bead lung infection in WT C57BL/6J mice (Example 1); format: in vivo
Procedure: Ajulemic acid (AJA) was tested in mice inoculated with Pseudomonas aeruginosa to determine its effect on treatment of infection, including the ability to promote bacterial clearance. Mice (WT, C57BL/6J) were inoculated with Pseudomonas aeruginosa agarose beads in the lungs and then treated twice daily with oral doses of ajulemic acid at 1 mg/kg and 5 mg/kg. Ajulemic acid was then administered by gavage at 1 mg/kg or 5 mg/kg dose BID in 2% methylcellulose for 10 days starting 24 hours after establishing chronic Pseudomonas aeruginosa infection. WT animals in this study were followed daily for clinical score and weights for 10 days. At Day 10, animals were euthanized and evaluated for bacteria load (colony forming units, cfus), total bronchoalveolar lavage (BAL), white blood cell counts (WBCs), and differential cell counts.
The study was conducted with 40 wild type female C57BL/6J mice. Each group of mice was inoculated with 10^5 colony forming units (CFUs) of Pseudomonas aeruginosa (PAM 5715, a CF clinical isolate). One day post infection, mice were given either 2% methylcellulose, 2% methylcellulose+1 mg/kg ajulemic acid, or 2% methylcellulose+5 mg/kg ajulemic acid BID. Animals were followed for 10 days. At day 10, animals were euthanized for BAL CFUs, differentials, total white blood cell count with fluid, and pellet saved for future studies.
Treatment and control groups include the following Pseudomonas aeruginosa infected controls treated with 2% methylcellulose, Pseudomonas aeruginosa infected animals treated with 1 mg/kg BID AJA in 2% methylcellulose, Pseudomonas aeruginosa infected animals treated with 5 mg/kg BID AJA in 2% methylcellulose, and untreated baseline controls.

[3] = 1 mg/day, 5 mg/day, or 20 mg/day, respective treatment periods
[4] = across doses, compared to placebo

Compound: CCCCCCC(C)(C)c1cc(O)c2c(c1)OC(C)(C)[C@@H]1CC=C(C(=O)O)C[C@@H]21 [ajulemic acid, (6aR,10aR)-1-hydroxy-6,6-dimethyl-3-(2-methyl-2-octanyl)-6a,7,10,10a-tetrahydro-6H-benzo[c]chromene-9-carboxylic acid]
- Acute pulmonary exacerbations requiring a new antibiotic, Subjects ([1]; 1 mg, N = 22, Weeks 1-4, placebo 6 (25.0)): 3 (13.6) n/N at risk (%)
- Acute pulmonary exacerbations requiring intravenous antibiotics, Subjects ([1]; 1 mg, Weeks 1-4, placebo 3 (8.6)): 1 (3.8) n (% at risk)
- acute pulmonary exacerbations requiring any new antibiotic [1, 3]: Reductions were also observed
- acute pulmonary exacerbations requiring intravenous antibiotics [1, 3]: Reductions were also observed
- Acute pulmonary exacerbations requiring a new antibiotic, Subjects ([1]; 5 mg, N = 23, Weeks 1-4, placebo 6 (25.0)): 3 (13.0) n/N at risk (%)
- Acute pulmonary exacerbations requiring intravenous antibiotics, Subjects ([1]; 5 mg, Weeks 1-4, placebo 3 (8.6)): 1 (4.2) n (% at risk)
- Acute pulmonary exacerbations requiring a new antibiotic, Subjects ([1]; 20 mg BID, N = 22, Post-treatment, placebo 2 (22.2)): 2 (9.1) n/N at risk (%)
- Acute pulmonary exacerbations requiring a new antibiotic, Subjects ([1]; 20 mg BID, N = 24, Weeks 5-12, placebo 9 (50.0)): 2 (8.3) n/N at risk (%)
- Acute pulmonary exacerbations requiring intravenous antibiotics, Subjects ([1]; 20 mg BID, Weeks 5-12, placebo 3 (16.7)): 1 (3.3) n (% at risk)
- reduction in the 48 week rate of acute pulmonary exacerbations requiring any new antibiotic ([1]; 20 mg BID, compared to placebo): 82%
- reduction in the 48 week rate of acute pulmonary exacerbations requiring intravenous antibiotics ([1]; 20 mg BID, compared to placebo): 75%
- Acute pulmonary exacerbations requiring a new antibiotic, Subjects ([1]; 20 mg, N = 20, Post-treatment, placebo 2 (22.2)): 6 (30.0) n/N at risk (%)
- Acute pulmonary exacerbations requiring a new antibiotic, Subjects ([1]; 20 mg, N = 25, Weeks 5-12, placebo 9 (50.0)): 4 (16.0) n/N at risk (%)
- Acute pulmonary exacerbations requiring intravenous antibiotics, Subjects ([1]; 20 mg, Weeks 5-12, placebo 3 (16.7)): 3 (6.5) n (% at risk)
- subjects withdrawn due to adverse events ([1]; 85 subjects dosed, 2 on placebo): 3 subjects
- occurrence of acute pulmonary exacerbations requiring treatment with any new antibiotic [1, 4]: dose-dependent decrease
- occurrence of acute pulmonary exacerbations requiring treatment with intravenous antibiotics [1, 4]: dose-dependent decrease
- related serious or severe treatment emergent adverse events ([1]; adults with cystic fibrosis, 1-20 mg BID, 84 days): No related serious or severe treatment emergent adverse events
- white blood cell response ([2]; 1 mg/kg and 5 mg/kg BID oral, day 3, relative to controls infected or not infected): elevated
- weight profiles (body weight maintenance) ([2]; 1 mg/kg or 5 mg/kg BID, 10 days): no real adverse effect
- bacterial load of Pseudomonas aeruginosa (bacterial CFUs in the lungs) ([2]; 5 mg/kg BID oral, day 10): effective at decreasing the overall number of bacterial CFUs in the lungs
- treatment of infection compared with vehicle ([2]; WT C57BL/6J mice): more efficient at treating infection than vehicle
- tolerability ([2]; WT C57BL/6J mice, 1 or 5 mg/kg BID oral, 10 days): well tolerated
- white blood cells ([2]; all groups, day 10, compared to controls): normalized
- levels of neutrophils ([2]; all treatment groups relative to the non-treated control): elevated levels of neutrophils
- levels of lymphocytes or eosinophils ([2]; any of the groups): no significant difference
- alveolar macrophages ([2]; treatment groups, by day 10): increase in alveolar macrophages
- neutrophils ([2]; treatment groups, by day 10): decreased neutrophils
